Where a SMILES comes first, the peptide text is derived from it.
Molecular target: HLA B*1501 (Homo sapiens, UniProt P01889, A329T/A93T/A95T/C349S/D201E/D98Y/E187L/E204Q/E69M/E70A/K202T/N87E/Q94N/R155S/R180W/S121R/S35A/S48A/V306I/V36M/Y140S/Y91S)
Assay: biochemical
Type: binding

For CC(C)C[C@H](NC(=O)[C@H](CS)NC(=O)[C@H](CO)NC(=O)[C@H](CCCCN)NC(=O)[C@@H](NC(=O)[C@@H](N)CCCCN)C(C)C)C(=O)N[C@@H](CS)C(=O)N[C@@H](CO)C(=O)N[C@@H](Cc1ccccc1)C(=O)O [3102.0813] (H-KVKSCLCSF-OH), the IC50 was 17 nM.
CC[C@H](C)[C@H](NC(=O)[C@H](CCC(N)=O)NC(=O)[C@H](CCCNC(=N)N)NC(=O)[C@H](CC(C)C)NC(=O)[C@@H](N)CCCCN)C(=O)N[C@H](C(=O)N[C@@H](C)C(=O)N[C@@H](Cc1ccc(O)cc1)C(=O)N[C@@H](Cc1ccccc1)C(=O)O)C(C)C [3102.0815] (H-KLRQIVAYF-OH) was tested, and the IC50 was 7.6 nM.
Work on CSCC[C@H](NC(=O)[C@@H](NC(=O)[C@H](CC(C)C)NC(=O)[C@H](CC(C)C)NC(=O)[C@H](Cc1ccc(O)cc1)NC(=O)[C@H](CCC(N)=O)NC(=O)[C@@H](N)CC(N)=O)[C@@H](C)O)C(=O)N[C@@H](Cc1ccccc1)C(=O)N[C@@H](Cc1ccccc1)C(=O)O [3102.0819] (H-NQYLLTMFF-OH) yielded an IC50 of 1.2 nM.
In the case of CSCC[C@H](N)C(=O)N[C@@H](CC(C)C)C(=O)N[C@@H](CC(N)=O)C(=O)N[C@H](C(=O)N[C@@H](Cc1ccc(O)cc1)C(=O)NCC(=O)N[C@@H](CCC(=O)O)C(=O)NCC(=O)N[C@@H](Cc1ccccc1)C(=O)O)[C@@H](C)O [3102.0822] (H-MLNTYGEGF-OH), the IC50 is reported as 2.3 nM.
With CC(C)C[C@H](NC(=O)[C@@H](NC(=O)[C@H](CCCCN)NC(=O)[C@H](CCCCN)NC(=O)[C@H](C)NC(=O)[C@@H](N)CC(C)C)[C@@H](C)O)C(=O)N[C@@H](C)C(=O)N1CCC[C@H]1C(=O)N[C@@H](Cc1ccccc1)C(=O)O [3102.0825] (H-LAKKTLAPF-OH) the IC50 was 2.1 nM.
In the case of CC[C@H](C)[C@H](NC(=O)[C@@H](NC(=O)[C@@H](N)Cc1ccccc1)[C@@H](C)CC)C(=O)N[C@@H](CCCCN)C(=O)N[C@@H](CO)C(=O)N[C@@H](CO)C(=O)N[C@@H](Cc1ccc(O)cc1)C(=O)N[C@H](C(=O)N[C@@H](Cc1ccccc1)C(=O)O)C(C)C [3102.0827] (H-FIIKSSYVF-OH), the IC50 is reported as 3.2 nM.
CC[C@H](C)[C@H](NC(=O)[C@H](Cc1ccc(O)cc1)NC(=O)[C@H](CCSC)NC(=O)[C@@H](N)CC(C)C)C(=O)N[C@@H](CC(C)C)C(=O)NCC(=O)N[C@H](C(=O)N[C@@H](Cc1ccc(O)cc1)C(=O)NCC(=O)O)[C@@H](C)O [3102.0828] (H-LMYILGTYG-OH) was tested, and the IC50 was 62 nM.
Molecule CC[C@H](C)[C@H](NC(=O)[C@@H](NC(=O)[C@@H](NC(=O)[C@H](C)NC(=O)[C@H](CCSC)NC(=O)[C@@H](N)Cc1ccc(O)cc1)[C@@H](C)O)[C@@H](C)O)C(=O)N[C@@H](CC(C)C)C(=O)N[C@@H](CCC(=O)O)C(=O)N[C@@H](CCSC)C(=O)O [3102.0830] (H-YMATTILEM-OH) has an IC50 of 2.2 nM.
With CSCC[C@H](NC(=O)[C@@H](NC(=O)[C@H](CCC(=O)O)NC(=O)[C@H](CCSC)NC(=O)[C@H](CC(C)C)NC(=O)[C@H](CCSC)NC(=O)[C@H](Cc1ccccc1)NC(=O)[C@@H](NC(=O)[C@H](C)N)C(C)C)[C@@H](C)O)C(=O)O [3102.0831] (H-AVFMLMETM-OH) the IC50 was 26 nM.
With CC(C)C[C@H](NC(=O)[C@H](Cc1c[nH]cn1)NC(=O)[C@@H](NC(=O)[C@H](Cc1ccccc1)NC(=O)[C@H](Cc1ccc(O)cc1)NC(=O)[C@H](CS)NC(=O)[C@H](Cc1ccc(O)cc1)NC(=O)[C@H](CC(C)C)NC(=O)CN)[C@@H](C)O)C(=O)O [3102.0832] (H-GLYCYFTHL-OH) the IC50 was 6.9 nM.
In the case of NCCCC[C@H](NC(=O)[C@H](CCCCN)NC(=O)[C@H](CO)NC(=O)[C@@H](N)CCCCN)C(=O)N[C@@H](Cc1ccc(O)cc1)C(=O)N[C@@H](CCC(=O)O)C(=O)NCC(=O)N1CCC[C@H]1C(=O)N[C@@H](Cc1ccccc1)C(=O)O [3102.0833] (H-KSKKYEGPF-OH), the IC50 is reported as 1.9 nM.
Molecule CSCC[C@H](NC(=O)[C@@H](N)CC(C)C)C(=O)N[C@@H](CC(N)=O)C(=O)N[C@@H](CC(N)=O)C(=O)N[C@@H](CC(C)C)C(=O)N[C@@H](CC(=O)O)C(=O)N[C@H](C(=O)N[C@@H](CC(C)C)C(=O)N[C@@H](Cc1ccccc1)C(=O)O)[C@@H](C)O [3102.0836] (H-LMNNLDTLF-OH) has an IC50 of 86 nM.
In the case of CC[C@H](C)[C@H](NC(=O)[C@H](CO)NC(=O)[C@@H](NC(=O)[C@H](CS)NC(=O)[C@@H](NC(=O)[C@H](CO)NC(=O)[C@H](CCCNC(=N)N)NC(=O)[C@H](CCSC)NC(=O)[C@@H](N)CC(C)C)[C@@H](C)CC)C(C)C)C(=O)O [3102.0838] (H-LMRSICVSI-OH), the IC50 is reported as 63 nM.
With CSCC[C@H](N)C(=O)N[C@@H](CCC(=O)O)C(=O)N[C@@H](CCCNC(=N)N)C(=O)N[C@@H](Cc1ccccc1)C(=O)N[C@@H](CC(N)=O)C(=O)N[C@@H](CS)C(=O)N[C@@H](CO)C(=O)N[C@@H](CO)C(=O)N[C@@H](Cc1ccccc1)C(=O)O [3102.0839] (H-MERFNCSSF-OH) the IC50 was 1.6 nM.
CC(C)C[C@H](N)C(=O)N[C@@H](CO)C(=O)N[C@@H](CCCNC(=N)N)C(=O)N[C@H](C(=O)N[C@@H](Cc1ccccc1)C(=O)N[C@@H](Cc1ccccc1)C(=O)N[C@@H](CS)C(=O)N[C@H](C(=O)N[C@@H](Cc1ccc(O)cc1)C(=O)O)C(C)C)C(C)C [3102.0840] (H-LSRVFFCVY-OH) was tested, and the IC50 was 2.9 nM.
Molecule CSCC[C@H](NC(=O)[C@H](Cc1c[nH]cn1)NC(=O)[C@@H]1CCCN1C(=O)[C@H](CC(C)C)NC(=O)[C@H](Cc1ccccc1)NC(=O)[C@H](CC(N)=O)NC(=O)[C@H](Cc1c[nH]cn1)NC(=O)[C@H](CC(C)C)NC(=O)[C@@H](N)CCSC)C(=O)O [3102.0846] (H-MLHNFLPHM-OH) has an IC50 of 41 nM.
In the case of CC(C)C[C@H](NC(=O)[C@@H]1CCCN1C(=O)[C@H](CCCNC(=N)N)NC(=O)[C@H](Cc1ccc(O)cc1)NC(=O)[C@H](Cc1ccccc1)NC(=O)[C@@H](NC(=O)CN)C(C)C)C(=O)N[C@@H](Cc1c[nH]cn1)C(=O)N[C@@H](Cc1ccccc1)C(=O)O [3102.0847] (H-GVFYRPLHF-OH), the IC50 is reported as 5.5 nM.
CC[C@H](C)[C@H](NC(=O)[C@H](CS)NC(=O)[C@H](CO)NC(=O)[C@@H](NC(=O)[C@H](CS)NC(=O)[C@H](CO)NC(=O)[C@H](CCSC)NC(=O)[C@@H](N)CCSC)[C@@H](C)CC)C(=O)N[C@@H](Cc1ccccc1)C(=O)O [3102.0850] (H-MMSCISCIF-OH) was tested, and the IC50 was 7.6 nM.
CC[C@H](C)[C@H](NC(=O)[C@@H](N)CCCCN)C(=O)N[C@@H](CCCCN)C(=O)N[C@@H](Cc1c[nH]cn1)C(=O)N[C@@H](CCCCN)C(=O)NCC(=O)N[C@@H](CCSC)C(=O)N[C@@H](CO)C(=O)N[C@@H](Cc1ccccc1)C(=O)O [3102.0851] (H-KIKHKGMSF-OH) showed an IC50 of 47 nM.
CC[C@H](C)[C@H](NC(=O)CNC(=O)[C@@H](N)CO)C(=O)NCC(=O)N[C@H](C(=O)N[C@@H](Cc1ccccc1)C(=O)N[C@@H](CC(C)C)C(=O)N[C@@H](Cc1c[nH]cn1)C(=O)N[C@@H](Cc1ccc(O)cc1)C(=O)O)[C@@H](C)O [3102.0852] (H-SGIGTFLHY-OH) gave an IC50 of 23 nM.
CC[C@H](C)[C@H](NC(=O)[C@@H](N)CO)C(=O)N[C@@H](CS)C(=O)N[C@@H](CO)C(=O)N[C@@H](CCCCN)C(=O)N[C@@H](CO)C(=O)N[C@@H](CC(N)=O)C(=O)N1CCC[C@H]1C(=O)N[C@@H](Cc1ccccc1)C(=O)O [3102.0855] (H-SICSKSNPF-OH) gave an IC50 of 39 nM.
Molecule CSCC[C@H](NC(=O)[C@H](CCCCN)NC(=O)[C@H](CCCCN)NC(=O)[C@H](Cc1ccc(O)cc1)NC(=O)[C@@H](NC(=O)[C@@H](N)CC(C)C)C(C)C)C(=O)N[C@@H](CCC(N)=O)C(=O)N[C@@H](CO)C(=O)N[C@@H](Cc1ccc(O)cc1)C(=O)O [3102.0856] (H-LVYKKMQSY-OH) has an IC50 of 46 nM.
CC[C@H](C)[C@H](NC(=O)[C@H](CS)NC(=O)[C@H](CCCNC(=N)N)NC(=O)[C@H](Cc1c[nH]cn1)NC(=O)[C@H](CC(C)C)NC(=O)[C@@H](N)CC(C)C)C(=O)N[C@@H](Cc1ccc(O)cc1)C(=O)N[C@@H](Cc1c[nH]cn1)C(=O)N[C@@H](Cc1ccc(O)cc1)C(=O)O [3102.0866] (H-LLHRCIYHY-OH) showed an IC50 of 43 nM.
In the case of CC[C@H](C)[C@H](N)C(=O)N[C@@H](CO)C(=O)N[C@H](C(=O)N[C@@H](CCCCN)C(=O)N[C@@H](CC(C)C)C(=O)N[C@@H](CO)C(=O)N[C@@H](CS)C(=O)N[C@@H](Cc1c[nH]cn1)C(=O)N[C@@H](Cc1ccc(O)cc1)C(=O)O)[C@@H](C)O [3102.0872] (H-ISTKLSCHY-OH), the IC50 is reported as 18 nM.
For CC(C)C[C@H](NC(=O)[C@H](CCCCN)NC(=O)[C@H](CS)NC(=O)[C@H](CC(C)C)NC(=O)[C@@H](N)CO)C(=O)N[C@@H](CC(N)=O)C(=O)N[C@@H](CC(N)=O)C(=O)N[C@H](C(=O)N[C@@H](Cc1ccccc1)C(=O)O)C(C)C [3102.0874] (H-SLCKLNNVF-OH), the IC50 was 16 nM.
In the case of CC[C@H](C)[C@H](NC(=O)[C@H](C)NC(=O)[C@H](CC(C)C)NC(=O)[C@@H](N)CC(C)C)C(=O)N[C@@H](CO)C(=O)N[C@@H](C)C(=O)N[C@H](C(=O)N[C@@H](Cc1ccc(O)cc1)C(=O)N[C@@H](Cc1ccccc1)C(=O)O)C(C)C [3102.0875] (H-LLAISAVYF-OH), the IC50 is reported as 32 nM.
In the case of CC[C@H](C)[C@H](NC(=O)[C@H](CC(N)=O)NC(=O)[C@@H]1CCCN1C(=O)[C@H](CS)NC(=O)[C@@H](NC(=O)[C@@H](N)CCSC)C(C)C)C(=O)N[C@@H](CC(N)=O)C(=O)N[C@@H](C)C(=O)N[C@@H](Cc1ccccc1)C(=O)O [3102.0876] (H-MVCPNINAF-OH), the IC50 is reported as 22 nM.
CSCC[C@H](NC(=O)[C@H](Cc1ccc(O)cc1)NC(=O)[C@H](CO)NC(=O)[C@H](CCC(=O)O)NC(=O)[C@H](Cc1ccc(O)cc1)NC(=O)[C@H](CS)NC(=O)[C@H](Cc1c[nH]cn1)NC(=O)[C@H](CC(C)C)NC(=O)[C@@H](N)CCSC)C(=O)O [3102.0879] (H-MLHCYESYM-OH) was tested, and the IC50 was 97 nM.
CSCC[C@H](NC(=O)[C@H](Cc1c[nH]cn1)NC(=O)[C@H](CS)NC(=O)[C@@H](NC(=O)[C@H](CC(N)=O)NC(=O)[C@H](CC(N)=O)NC(=O)[C@@H](NC(=O)[C@H](CO)NC(=O)[C@@H](N)C(C)C)C(C)C)C(C)C)C(=O)O [3102.0880] (H-VSVNNVCHM-OH) gave an IC50 of 14 nM.
With CSCC[C@H](NC(=O)[C@@H](N)C(C)C)C(=O)N[C@H](C(=O)N[C@@H](CCCCN)C(=O)N[C@@H](Cc1c[nH]c2ccccc12)C(=O)N[C@@H](CS)C(=O)N[C@@H](C)C(=O)N1CCC[C@H]1C(=O)N[C@@H](Cc1ccccc1)C(=O)O)[C@@H](C)O [3102.0886] (H-VMTKWCAPF-OH) the IC50 was 1.9 nM.

From publication PMC2248166, “Quantitative peptide binding motifs for 19 human and mouse MHC class I molecules derived using positional scanning combinatorial peptide libraries” (Immunome Research, 2008)
